Laboratory results published in ChEMBL document CHEMBL4425105, “Discovery of (S)-1-(1-(4-Chloro-3-fluorophenyl)-2-hydroxyethyl)-4-(2-((1-methyl-1H-pyrazol-5-yl)amino)pyrimidin-4-yl)pyridin-2(1H)-one (GDC-0994), an Extracellular Signal-Regulated Kinase 1/2 (ERK1/2) Inhibitor in Early Clinical Development” (J Med Chem, 2016).

How the values were obtained:
[1] = target: Mitogen-activated protein kinase 3 (Homo sapiens, UniProt P27361)
Description: Inhibition of ERK1 (unknown origin)

[2] = target: Mitogen-activated protein kinase 1 (Homo sapiens, UniProt P28482)
Mitogen-activated protein kinase 1, sequence (P28482 whole entry): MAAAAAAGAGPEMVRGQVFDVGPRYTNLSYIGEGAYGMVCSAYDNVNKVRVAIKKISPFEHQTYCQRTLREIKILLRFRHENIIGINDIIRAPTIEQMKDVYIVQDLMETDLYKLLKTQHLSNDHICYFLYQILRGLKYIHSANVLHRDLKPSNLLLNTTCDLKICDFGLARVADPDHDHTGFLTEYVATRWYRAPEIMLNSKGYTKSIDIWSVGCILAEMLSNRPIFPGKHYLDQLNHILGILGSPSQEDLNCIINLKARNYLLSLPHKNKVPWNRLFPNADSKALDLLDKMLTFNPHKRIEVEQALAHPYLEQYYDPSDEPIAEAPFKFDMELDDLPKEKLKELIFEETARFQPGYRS
Description: Inhibition of ERK2 (unknown origin)

Cytochrome P450 = test: Inhibition of CYP450 (unknown origin); assay type: ADME, protein assay; conditions: human
[3] = Drug level in rat hepatocytes treated with (S)-1-(1-(4-chloro-3-fluorophenyl)-2-hydroxyethyl)-4-(2-(tetrahydro-2H-pyran-4-ylamino)pyrimidin-4-yl)pyridin-2(1H)-one measured after 3 hrs by LC/MS analysis; assay type: ADME, cell-based, Hepatocyte
[4] = Drug level in dog hepatocytes treated with (S)-1-(1-(4-chloro-3-fluorophenyl)-2-hydroxyethyl)-4-(2-(tetrahydro-2H-pyran-4-ylamino)pyrimidin-4-yl)pyridin-2(1H)-one measured after 3 hrs by LC/MS analysis; assay type: ADME, cell-based, Canis lupus familiaris, Hepatocyte
[5] = Drug level in cynomolgus monkey hepatocytes treated with (S)-1-(1-(4-chloro-3-fluorophenyl)-2-hydroxyethyl)-4-(2-(tetrahydro-2H-pyran-4-ylamino)pyrimidin-4-yl)pyridin-2(1H)-one measured after 3 hrs by LC/MS analysis; assay type: ADME, cell-based, Macaca fascicularis, Hepatocyte
[6] = Drug level in human hepatocytes treated with (S)-1-(1-(4-chloro-3-fluorophenyl)-2-hydroxyethyl)-4-(2-(tetrahydro-2H-pyran-4-ylamino)pyrimidin-4-yl)pyridin-2(1H)-one measured after 3 hrs by LC/MS analysis; assay type: ADME, cell-based, Hepatocyte
[7] = Drug level in mouse hepatocytes treated with (S)-1-(1-(4-chloro-3-fluorophenyl)-2-hydroxyethyl)-4-(2-(tetrahydro-2H-pyran-4-ylamino)pyrimidin-4-yl)pyridin-2(1H)-one measured after 3 hrs by LC/MS analysis; assay type: ADME, cell-based, Hepatocyte
[8] = Drug metabolism in human hepatocytes assessed as formation of 3-(4-(1-((S)-1-(4-chloro-3-fluorophenyl)-2-hydroxyethyl)-2-oxo-1,2-dihydropyridin-4-yl)pyrimidin-2-ylamino)-5-hydroxypentanoic acid measured after 3 hrs by LC-MS/MS analysis; assay type: ADME, cell-based, Hepatocyte
[9] = Drug metabolism in cynomolgus monkey hepatocytes assessed as formation of 3-(4-(1-((S)-1-(4-chloro-3-fluorophenyl)-2-hydroxyethyl)-2-oxo-1,2-dihydropyridin-4-yl)pyrimidin-2-ylamino)-5-hydroxypentanoic acid measured after 3 hrs by LC/MS analysis; assay type: ADME, cell-based, Macaca fascicularis, Hepatocyte
[10] = Drug metabolism in dog hepatocytes assessed as formation of 3-(4-(1-((S)-1-(4-chloro-3-fluorophenyl)-2-hydroxyethyl)-2-oxo-1,2-dihydropyridin-4-yl)pyrimidin-2-ylamino)-5-hydroxypentanoic acid measured after 3 hrs by LC-MS/MS analysis; assay type: ADME, cell-based, Canis lupus familiaris, Hepatocyte
Mus musculus [11] = species on record: Mus musculus
Description: In vivo inhibition of p90RSK phosphorylation in mouse xenografted with human HTC116 cells assessed as total plasma concentration required for efficacy

[12] = Drug metabolism in rat hepatocytes assessed as formation of 3-(4-(1-((S)-1-(4-chloro-3-fluorophenyl)-2-hydroxyethyl)-2-oxo-1,2-dihydropyridin-4-yl)pyrimidin-2-ylamino)-5-hydroxypentanoic acid measured after 3 hrs by LC-MS/MS analysis; assay type: ADME, cell-based, Hepatocyte
[13] = Drug metabolism in mouse hepatocytes assessed as formation of 3-(4-(1-((S)-1-(4-chloro-3-fluorophenyl)-2-hydroxyethyl)-2-oxo-1,2-dihydropyridin-4-yl)pyrimidin-2-ylamino)-5-hydroxypentanoic acid measured after 3 hrs by LC-MS/MS analysis; assay type: ADME, cell-based, Hepatocyte
Mus musculus [14] = test: T>IC50 for inhibition of p90RSK phosphorylation in CD-1 mouse at 10 mg/kg, po
[15] = Permeability from apical to basolateral side of MDCK cells; assay type: ADME, cell-based, Canis lupus familiaris; conditions: dog, read-out: permeability
[16] = Fraction unbound in mouse plasma; assay type: ADME, cell-free
HCT-116 = test: Antitumor activity against human HCT116 cells xenografted in mouse assessed as tumor growth inhibition at 7.5 mg/kg, po qd measured after 21 days relative to vehicle-control; assay type: functional; conditions: HCT-116, po, 504 h
Cytochrome P450 3A4 = Cytochrome P450 3A4 (Homo sapiens, UniProt P08684)
Cytochrome P450 3A4, sequence (P08684 whole entry): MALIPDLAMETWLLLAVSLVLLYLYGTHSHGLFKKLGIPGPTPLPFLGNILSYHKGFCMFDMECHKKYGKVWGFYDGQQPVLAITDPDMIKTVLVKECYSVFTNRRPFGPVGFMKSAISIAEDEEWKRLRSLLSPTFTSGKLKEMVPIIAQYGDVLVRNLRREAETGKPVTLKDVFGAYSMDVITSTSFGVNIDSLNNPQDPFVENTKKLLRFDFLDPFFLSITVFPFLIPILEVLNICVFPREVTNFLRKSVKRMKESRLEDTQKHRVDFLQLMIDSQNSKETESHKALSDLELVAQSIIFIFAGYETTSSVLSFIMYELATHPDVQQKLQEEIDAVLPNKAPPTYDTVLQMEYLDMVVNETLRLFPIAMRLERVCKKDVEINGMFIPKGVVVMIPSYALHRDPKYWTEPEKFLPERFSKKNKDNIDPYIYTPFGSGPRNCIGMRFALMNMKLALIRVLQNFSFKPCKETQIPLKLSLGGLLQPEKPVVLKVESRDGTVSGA
Description: Inhibition of CYP3A4 (unknown origin)

in vivo = conditions: CD-1, mouse, po
Description: Oral bioavailability in CD-1 mouse

Mitogen-activated protein kinase 3, sequence (P27361 whole entry): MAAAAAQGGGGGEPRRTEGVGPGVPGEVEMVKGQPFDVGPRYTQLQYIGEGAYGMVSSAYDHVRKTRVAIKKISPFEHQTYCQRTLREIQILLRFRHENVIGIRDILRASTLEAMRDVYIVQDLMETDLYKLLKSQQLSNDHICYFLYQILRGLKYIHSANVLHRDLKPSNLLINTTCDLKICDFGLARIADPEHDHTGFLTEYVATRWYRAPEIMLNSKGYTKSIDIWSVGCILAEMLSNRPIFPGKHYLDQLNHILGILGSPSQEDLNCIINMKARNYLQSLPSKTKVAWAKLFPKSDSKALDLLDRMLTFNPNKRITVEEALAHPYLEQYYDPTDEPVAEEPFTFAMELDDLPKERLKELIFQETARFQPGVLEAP

| Compound | IC50 [1] [nM] | IC50 [2] [nM] | inhibition (INH) (Cytochrome P450) | other results |
| --- | --- | --- | --- | --- |
| Cc1n[nH]c(C)c1Nc1nccc(-c2ccn([C@H](CO)c3ccc(Cl)c(F)c3)c(=O)c2)n1 | 510 | 240 | Not Active | – |
| O=C(O)CC(CCO)Nc1nccc(-c2ccn([C@H](CO)c3ccc(Cl)c(F)c3)c(=O)c2)n1 (some centres not stated) | – | – | – | Drug metabolism [3]: Metabolite_Detected; Drug metabolism [4]: Metabolite_Detected; Drug metabolism [5]: Metabolite_Detected; Drug metabolism [6]: Metabolite_Detected; Drug metabolism [7]: Metabolite_Detected |
| CCc1nn(C)cc1Nc1nccc(-c2ccn([C@H](CO)c3ccc(Cl)c(F)c3)c(=O)c2)n1 | 43 | 23 | Not Active | – |
| O=c1cc(-c2ccnc(Nc3cc[nH]n3)n2)ccn1[C@H](CO)c1ccc(Cl)c(F)c1 | 9610 | 5650 | – | – |
| Cc1cnn(C)c1Nc1nccc(-c2ccn([C@H](CO)c3ccc(Cl)c(F)c3)c(=O)c2)n1 | 1070 | 490 | – | – |
| O=c1cc(-c2ccnc(NC3CCOCC3)n2)ccn1[C@H](CO)c1ccc(Cl)c(F)c1 | – | – | – | Drug metabolism [8]: Metabolite_Detected; Drug metabolism [9]: Metabolite_Detected; Drug metabolism [10]: Metabolite_Detected; Cp (Mus musculus [11]): 200 nM; Drug metabolism [12]: Metabolite_Detected; Drug metabolism [13]: Metabolite_Detected; Time (Mus musculus [14]): 8 h; Papp A→B [15]: 3.9 ×10⁻⁶ cm/s; fraction unbound [16]: 0.058 |
| CCn1nccc1Nc1nccc(-c2ccn([C@H](CO)c3ccc(Cl)c(F)c3)c(=O)c2)n1 | 26 | 16 | – | – |
| Cn1nc(C(F)(F)F)cc1Nc1nccc(-c2ccn([C@H](CO)c3ccc(Cl)c(F)c3)c(=O)c2)n1 | 74 | 52 | – | – |
| CCc1cc(Nc2nccc(-c3ccn([C@H](CO)c4ccc(Cl)c(F)c4)c(=O)c3)n2)n(C)n1 | 27 | 17 | – | – |
| CCn1nc(C)cc1Nc1nccc(-c2ccn([C@H](CO)c3ccc(Cl)c(F)c3)c(=O)c2)n1 | 150 | 89 | – | – |
| O=C(c1ccc(F)c(F)c1Nc1ccc(I)cc1F)N1CC(O)([C@@H]2CCCCN2)C1 [COBIMETINIB] | – | – | – | inhibition in vivo at 7.5 mg/kg (HCT-116): 58% |
| Cn1ccc(Nc2nccc(-c3ccn([C@H](CO)c4ccc(Cl)c(F)c4)c(=O)c3)n2)n1 | 85 | 37 | – | – |
| Cc1c(Nc2nccc(-c3ccn([C@H](CO)c4ccc(Cl)c(F)c4)c(=O)c3)n2)cnn1C | 62 | 29 | Not Active | – |
| Cn1cc(Nc2nccc(-c3ccn([C@H](CO)c4ccc(Cl)c(F)c4)c(=O)c3)n2)c(C(F)(F)F)n1 | 550 | 290 | Not Active | – |

The next lines start with results.

| IC50 [1] [nM] | IC50 [2] [nM] | inhibition (INH) (Cytochrome P450) | Compound | other results |
| --- | --- | --- | --- | --- |
| 20 | – | – | Cc1cc(Nc2nccc(-c3ccn([C@H](CO)c4ccc(Cl)c(F)c4)c(=O)c3)n2)n(C)n1 | – |
| 3.8 | 0.9 | Not Active | Cc1n[nH]cc1Nc1nccc(-c2ccn([C@H](CO)c3ccc(Cl)c(F)c3)c(=O)c2)n1 | – |
| 5 | 1.8 | Not Active | CCn1cc(Nc2nccc(-c3ccn([C@H](CO)c4ccc(Cl)c(F)c4)c(=O)c3)n2)cn1 | – |
| 18 | – | Not Active | CCn1cc(Nc2nccc(-c3ccn([C@H](CO)c4ccc(Cl)c(F)c4)c(=O)c3)n2)c(C)n1 | – |
| 19 | 10 | Not Active | CC(C)n1cc(Nc2nccc(-c3ccn([C@H](CO)c4ccc(Cl)c(F)c4)c(=O)c3)n2)cn1 | – |
| 7.9 | 4.1 | Not Active | Cn1cc(Nc2nccc(-c3ccn([C@H](CO)c4ccc(Cl)c(F)c4)c(=O)c3)n2)cn1 | – |
| 3.9 | 0.94 | – | Cc1cc(Nc2nccc(-c3ccn([C@H](CO)c4ccc(Cl)c(F)c4)c(=O)c3)n2)ccn1 | IC50 (Cytochrome P450 3A4): 340 nM |
| 13 | – | Not Active | Cc1nn(C)cc1Nc1nccc(-c2ccn([C@H](CO)c3ccc(Cl)c(F)c3)c(=O)c2)n1 | bioavailability (in vivo): 95% |
